Assay results published in patent publication US20260242563A1, “DEGRADABLE CROSSLINKING AGENT” (NAGASE CHEMTEX CORPORATION, priority 2023, published 2026).

What was measured:
[1] = Water solubility of degradation products in ion exchange water at 20° C.
[2] = Adding a small amount of 12% sodium hypochlorite aqueous solution to the cross-linking agent compound; format: physicochemical; conditions: small amount of 12% sodium hypochlorite aqueous solution added to the compound
[3] = 0.3 g in 10 mL of ion exchange water
[4] = one gram in 10 mL of ion exchange water

Structure (SMILES) | degradation product generated (confirmed by 1H-NMR) [2] | observation upon adding oxidizing agent [2] | water solubility [1, 4] | also measured
O=C(O)c1cc(C(=O)O)cc(C(=O)O)c1 [trimesic acid] | – | – | – | water solubility [1, 3]: insoluble
C=CCOC(=O)NNC(=O)CCC(NC(=O)NNC(=O)CCC(=O)NNC(=O)NC(CCC(=O)NNC(=O)OCC=C)C(=O)NNC(=O)OCC=C)C(=O)NNC(=O)OCC=C (centres unmarked) [Formula (A8)] | succinic acid and glutamic acid | foaming occurred | – | –
OCCCCCCO [1,6-hexanediol] | – | – | soluble | –
C=CCOC(=O)NNC(=O)CCC(NC(=O)NNC(=O)c1cc(C(=O)NNC(=O)NC(CCC(=O)NNC(=O)OCC=C)C(=O)NNC(=O)OCC=C)cc(S(=O)(=O)[O-])c1)C(=O)NNC(=O)OCC=C.[Na+] (centres unmarked) [Formula (A7)] | sodium 5-sulfoisophthalate and glutamic acid | foaming occurred | – | –
C=C(C)C(=O)NNC(=O)c1ccc(OCC(O)COc2ccc(C(C)(C)c3ccc(OCC(O)COc4ccc(C(=O)NNC(=O)C(=C)C)cc4)cc3)cc2)cc1 (centres unmarked) [Formula (B), reference compound] | compound of formula (C) | foaming occurred | – | –
NCCCCCCN [hexamethylenediamine] | – | – | soluble | –
CC(C)(c1ccc(OCC(O)COc2ccc(C(=O)O)cc2)cc1)c1ccc(OCC(O)COc2ccc(C(=O)O)cc2)cc1 (centres unmarked) [Formula (C)] | – | – | – | water solubility [1, 3]: insoluble
O=C(O)c1cc(C(=O)O)cc(S(=O)(=O)O)c1 [5-sulfoisophthalic acid] | – | – | soluble | –
C=C(C)C(=O)NNC(=O)OCCOCCOCCOC(=O)NNC(=O)C(=C)C [Formula (A1)] | triethylene glycol | foaming occurred | – | –
OCCOCCOCCO [triethylene glycol] | – | – | soluble | water solubility ([1]; 2 g in 10 mL of ion exchange water): soluble
C=CCOC(=O)NNC(=O)OCCCCCCOC(=O)NNC(=O)OCC=C [Formula (A3)] | 1,6-hexanediol | foaming occurred | – | –
NNC(=O)CCC(NC(=O)NNC(=O)c1cc(C(=O)NNC(=O)NC(=O)NC(CCC(=O)NN)C(=O)NN)cc(S(=O)(=O)[O-])c1)C(=O)NN.[Na+] (centres unmarked) [Formula (A6)] | sodium 5-sulfoisophthalate | foaming occurred | – | –
O=C(O)CCCCCO [6-hydroxyhexanoic acid] | – | – | – | water solubility ([1]; 0.5 g in 10 mL of ion exchange water): soluble
